Results taken from patent US8784856B2, “Meadowfoam-based bioherbicide products” (The State of Oregon Acting by and Through the State Boad of …, priority 2007, dated 2014).
Entries after “also recorded” stand apart in the source; their conditions may differ.

Columns and labels:
[1] = system: root lesion nematode (Pratylenchus neglectus); details: in vivo; cited from earlier work
[2] = system: potato cyst Nematode (Globodera rostochiensis Ct. Woll); details: in vivo; cited from earlier work
Wheat [3] = details: in vivo; cited from earlier work
fungi = details: cited from earlier work
[4] = system: postharvest fruit pathogens; details: cited from earlier work
[5] = Degradation of GLN in aqueous FeSO4 solution (HPLC); format: physicochemical; details: 1 mM GLN with 10 mM FeSO4 at room temperature; FIG. 3B
Source text: HPLC. The HPLC equipment consisted of a Waters Delta 600 solvent delivery system, a Waters 717 plus Autosampler, a Waters 2996 photodiode array detector, a Waters 600 controller and a data acquisition/processing computer with Empower™ software (Waters, Milford, Mass.). In HPLC system 1, separations were achieved on a reverse-phase Lichrosphere 5 μm C18 column (4×250 mm, Phenomenex, Torrance, Calif.). The HPLC solvents were 0.1% aqueous trifluoroacetic acid (solvent A) and MeCN (solvent B). A linear solvent gradient was employed starting from 5% solvent B in solvent A to 100% B over 30 min at a flow rate of 1.0 mL/min. After returning to the starting conditions in 1 min, the column was equilibrated for 10 min before the next injection. The injection volume was 20 μL. On-line UV spectra were recorded in the range 220-500 nm and the λ274 nm trace was used for calculation of peak areas. Analyte concentrations were determined from calibration curves constructed for each analyte.

[6] = system: downy brome (Bromus tectorum) seeds; assay: Assay for herbicidal activity: downy brome seed germination in soil; format: in vivo; details: for inhibition of downy brome germination at the highest concentration tested: 0.89 mg g^−1, FIG. 11; for effectiveness in inhibiting downy brome germination, in words: FIG. 11, comparison of compounds 1-4; for activity as seed germination inhibitors (downy brome): compared with MBITC, 82 hours and 168 hours, FIG. 8
Experimental: Assay for herbicidal activity. About 45 g of clean soil was weighed into 10-cm diameter Petri dishes. For germination testing of individual compounds (1-4), 15.0 mL of test solution was added to each dish. Glucolimanthin 1 (GLN) was dissolved in water and compounds 2-4 in ethanol. The ethanolic solutions were applied to the dishes, allowed to evaporate overnight in a hood, and then 15 mL of water was added to the dishes. Meal products were mixed with soil, followed by the addition of 15 mL of water. Fifteen seeds of Bromus tectorum were placed in concentric circles within each dish. Petri dishes with lids were placed in an incubator at 20° C. during day time (8 hrs) and at 15° C. at night time (16 hrs) for 7 days. Germination was recorded as root emergence.

Wheat [7] = details: in vivo; cited from earlier work; remark: listed apart in the source
[8] = system: velvetleaf (Abutilon theophrasti); details: in vivo; cited from earlier work
[9] = system: fall armyworm (Lepidoptera: Noctuidae); details: compared with benzyl ITC and synthetic analogs; cited from earlier work
Aphamyces euteiches = details: cited from earlier work
[10] = system: velvetleaf, sicklepod, milo, and pitted morning glory; details: formulated as granules; all weed types; cited from earlier work
[11] = system: skin damage by UV radiation; details: human subjects, topically applied; cited from earlier work
[12] = system: phase II enzymes (e.g., NAD(P)H:quinone reductase); details: cited from earlier work
phase 2 enzymes = details: after treatment; cited from earlier work
[13] = system: human retinal pigment epithelial cells, keratinocytes, and mouse leukemia cells; details: cited from earlier work
[14] = system: benzo[a]pyrene-induced stomach tumors; details: mice dosed with test compound; cited from earlier work
Helicobacter pylori = details: cited from earlier work

Question: What does the source list for `S=C=NCCc1ccccc1` [2-phenylethyl ITC]?
Answer: effect on root lesion nematode [1]: suppression; activity on potato cyst nematode [2]: performed well; order of effectiveness against wheat (Wheat [3]): 2-phenylethyl ITC>allyl ITC>benzyl ITC; activity against fungi (fungi): good activity

Question: For `C=CCCN=C=S` [3-butenyl ITC], which “activity against spore germination” value [4] is on record?
Answer: Its value is “lower activity”.

Question: For `Oc1ccc(CN=C=S)cc1` [4-hyxdroxybenzl], which “activity against spore germination” value [4] is on record?
Answer: Its value is “equal”.

Question: For `COc1cccc(C/C(=N/OS(=O)(=O)O)S[C@@H]2O[C@H](CO)[C@@H](O)[C@H](O)[C@H]2O)c1` [GLN, glucolimnanthin], which “degradation of GLN” value [5] is on record?
Answer: Its value is “did not result in significant degradation”.

Question: What about the “inhibition of downy brome germination at the highest concentration tested” value [6] of the same compound?
Answer: The value was “only slightly inhibited”.

Question: What about the “effectiveness in inhibiting downy brome germination, in words” value [6] of the same compound?
Answer: Its value is “least effective”.

Question: What about the “effect of GLN on downy brome seed germination” value ([6]; levels corresponding to those found in MSM (0.4 mg GLN per g soil), 7 days, FIG. 7) of the same compound?
Answer: The value was “no germination inhibitory activity; also recorded: no effect; also recorded: No difference”.

Question: Which results are given for `COc1cccc(CN=C=S)c1` [MBITC, 3-Methoxybenzyl isothiocyanate]?
Answer: inhibition of downy brome germination at the highest concentration tested [6]: failed to completely inhibit; effectiveness in inhibiting downy brome germination, in words [6]: not as effective; activity as seed germination inhibitors (downy brome) [6]: moderately active; seed germination inhibitory / allelopathic activity against wheat (Wheat [7]): greater activity; seed germination inhibitory / allelopathic activity against velvetleaf [8]: greater activity; effectiveness against armyworm [9]: more effective

Question: Which “inhibition of downy brome germination at the highest concentration tested” value [6] does the source give for `COc1cccc(CC#N)c1` [MPAN, 3-Methoxyphenylacetonitrile] here?
Answer: Its value is “completely inhibiting”.

Question: And the “effectiveness in inhibiting downy brome germination, in words” value [6]?
Answer: Its value is “most effective”.

Question: And the “activity as seed germination inhibitors (downy brome)” value [6]?
Answer: The value was “more active”.

Question: What about the “seed germination inhibitory / allelopathic activity against wheat” value (Wheat [7]) of the same compound?
Answer: Its value is “seed germination inhibitory effects”.

Question: What about the “seed germination inhibitory / allelopathic activity against velvetleaf” value [8] of the same compound?
Answer: Its value is “seed germination inhibitory effects”.

Question: What does the source list for `C=CCN=C=S` [allyl ITC]?
Answer: activity on potato cyst nematode [2]: performed well; order of effectiveness against wheat (Wheat [3]): 2-phenylethyl ITC>allyl ITC>benzyl ITC; performance against pathogen causing pea root rot (Aphamyces euteiches): performed well; activity against spore germination [4]: equal

Question: With `S=C=NCc1ccccc1` [benzyl ITC] as the compound, how does the “inhibition of weed germination” value [10] read?
Answer: The value was “inhibition of germination”.

Question: What about the “activity on potato cyst nematode” value [2] of the same compound?
Answer: The value was “performed well”.

Question: And the “order of effectiveness against wheat” value (Wheat [3])?
Answer: The value was 2-phenylethyl ITC>allyl ITC>benzyl ITC.

Question: And the “activity against spore germination” value [4]?
Answer: Its value is “lower activity”.

Question: And the activity against fungi (fungi)?
Answer: The activity against fungi was “good activity”.

Question: With `CN=C=S` [methyl ITC] as the compound, how does the “performance against pathogen causing pea root rot” value (Aphamyces euteiches) read?
Answer: Its value is “performed well”.

Question: Which results are given for `C[S+]([O-])CCCCN=C=S` (stereo not shown) [sulforaphane, 4-methylsulfinylbuthyl ITC]?
Answer: erythema and inflammation induced by UV radiation [11]: reduced; induction of phase II enzymes [12]: high activity; phase 2 enzymes in mouse and human skin (phase 2 enzymes): Up-regulation; glutathione after treatment [13]: increase; protection of cells against oxidative damage [13]: powerful and prolonged protection; effect on benzo[a]pyrene-induced stomach tumors [14]: blocked; antibacterial properties against Helicobacter pylori (Helicobacter pylori): bacteriostatic and bactericidal properties

Question: What does the source list for `CS/C=C/CCN=C=S` [trans-4-methylthio-3-butenyl ITC]?
Answer: activity against spore germination [4]: equal; activity against fungi (fungi): good activity
